The text below walks through data of ChEMBL document CHEMBL1149800, “Synthesis, physicochemical properties and antimicrobial evaluation of new (E)-chalcones” (Eur J Med Chem, 2008).

SMILES strings stand for the structures. ≈ marks a conversion by molar mass, not a printed value.

For orientation: MIC means the smallest concentration in the dilution series that meets the test's criterion for growth inhibition.

Assay [1] concerns Staphylococcus aureus. The assay can be described thus: Antibacterial activity against Staphylococcus aureus 209P FDA after 18 hrs by hole-plate agar diffusion method. The format is functional. (A growth-free zone around the sample is the usual read-out of agar diffusion tests.)
The test system of assay [2] is Nannizzia gypsea. Nature of the assay: Antifungal activity against Microsporum gypseum after 3 to 7 days. In kind it is functional.
The subject of assay [3] is Enterococcus faecalis. The assay can be described thus: Antibacterial activity against Enterococcus faecalis after 18 hrs by hole-plate agar diffusion method. In kind it is functional.
Assay [4] has as its system Bacillus subtilis. Nature of the assay: Antibacterial activity against Bacillus subtilis ATCC 1633 after 18 hrs by hole-plate agar diffusion method. In kind it is functional. As to conditions: ATCC 1633, 18 h.
The test system of assay [5] is Candida albicans. Nature of the assay: Antifungal activity against Candida albicans PCM 1409 PZH after 3 to 7 days. In kind it is functional, organism-based.
In assay [6] the test system is Escherichia coli. The assay can be described thus: Antibacterial activity against Escherichia coli PZH 026 B6 after 18 hrs by hole-plate agar diffusion method. The format is functional.

Regarding `CC1CCN(CCCCCCOc2ccc(/C=C/C(=O)c3ccccc3)cc2)CC1`, the MIC in assay [1] was 25 µM (≈ 10.1 µg/mL); in assay [2] it was 123 µM (≈ 49.9 µg/mL); in assay [3], 25 µM (≈ 10.1 µg/mL); in assay [4], 19 µM (≈ 7.71 µg/mL).

Consider `O=C(/C=C/c1ccc(OCCCCN2CCOCC2)cc1)c1ccccc1`, for which, in assay [2], the MIC was 274 µM (≈ 100 µg/mL).

Take `O=C(/C=C/c1ccc(OCCCCCN2CCOCC2)cc1)c1ccccc1`: in assay [2], the MIC stood at 264 µM (≈ 100 µg/mL).

`O=C(/C=C/c1ccc(OCCCCCCN2CCOCC2)cc1)c1ccccc1` had a minimal inhibitory concentration (MIC) in assay [2] of 254 µM (≈ 100 µg/mL).

`O=C(/C=C/c1ccc(SCCCCCN2CCOCC2)cc1)c1ccccc1`: the MIC in assay [2] amounted to 189 µM (≈ 74.8 µg/mL).

In turn, `O=C(/C=C/c1ccc(SCCCCCCN2CCOCC2)cc1)c1ccccc1` came in with an MIC in assay [2] of under 244 µM.

Compound `O=C(/C=C/c1ccc(OCCCCCBr)cc1)c1ccccc1` displayed an MIC in assay [2] of 268 µM (≈ 100 µg/mL).

`O=C(/C=C/c1ccc(OCCCCN2CCCCC2)cc1)c1ccccc1`: the MIC in assay [1], in assay [3] and in assay [4] was 275 µM (≈ 100 µg/mL) each time.

Turning to `O=C(/C=C/c1ccc(SCCCCCN2CCCCC2)cc1)c1ccccc1`, the MIC amounted to 254 µM (≈ 100 µg/mL) in assay [1]; 127 µM (≈ 50 µg/mL) in assay [5]; 254 µM (≈ 100 µg/mL) in assay [2]; 254 µM (≈ 100 µg/mL) in assay [3]; 254 µM (≈ 100 µg/mL) in assay [4]; 254 µM (≈ 100 µg/mL) in assay [6].

Consider `O=C(/C=C/c1ccc(OCCCCCN2CCCCC2)cc1)c1ccccc1`, for which the MIC in assay [1], in assay [3] and in assay [4] was 265 µM (≈ 100 µg/mL) throughout.

On to `CC1CCN(CCCCOc2ccc(/C=C/C(=O)c3ccccc3)cc2)CC1`, for which the MIC turned out to be 133 µM (≈ 50.2 µg/mL) in assay [1], 265 µM (≈ 100 µg/mL) in assay [2], 265 µM (≈ 100 µg/mL) in assay [3] and 265 µM (≈ 100 µg/mL) in assay [4].

As to `CC1CCN(CCCCCOc2ccc(/C=C/C(=O)c3ccccc3)cc2)CC1`, the MIC is 19 µM (≈ 7.44 µg/mL) in assay [1], 256 µM (≈ 100 µg/mL) in assay [2], 26 µM (≈ 10.2 µg/mL) in assay [3] and 128 µM (≈ 50.1 µg/mL) in assay [4].

`O=C(/C=C/c1ccc(OCCCCCCN2CCCCC2)cc1)c1ccccc1`: the MIC in assay [1] was 256 µM (≈ 100 µg/mL); in assay [2], under 256 µM; in assay [3], 256 µM (≈ 100 µg/mL); in assay [4], 256 µM (≈ 100 µg/mL).

Regarding `O=C(/C=C/c1ccc(OCCCCCCCCCCN2CCCCC2)cc1)c1ccccc1`, the results for the MIC in assay [1], in assay [3] and in assay [4] were 21 µM (≈ 9.4 µg/mL), 209 µM (≈ 93.6 µg/mL) and 209 µM (≈ 93.6 µg/mL), respectively.

In the case of `O=C(/C=C/c1ccc(SCCCCBr)cc1)c1ccccc1`, in assay [1], the MIC is 267 µM (≈ 100 µg/mL).

As for `O=C(/C=C/c1ccc(SCCCCCCN2CCCCC2)cc1)c1ccccc1`, the MIC was 25 µM (≈ 10.2 µg/mL) in assay [1]; under 246 µM in assay [5]; under 246 µM in assay [2]; 25 µM (≈ 10.2 µg/mL) in assay [3]; 25 µM (≈ 10.2 µg/mL) in assay [4].

Consider `O=C(/C=C/c1ccc(SCCCCCCCCCCN2CCCCC2)cc1)c1ccccc1`, for which the MIC in assay [1] and in assay [2] was 216 µM (≈ 100 µg/mL) in each case.

For the compound `O=C(/C=C/c1ccc(SCCCCCBr)cc1)c1ccccc1`, the lowest concentration to inhibit growth in assay [2] (MIC) was 193 µM (≈ 75.1 µg/mL).

As to `O=C(/C=C/c1ccc(SCCCCN2CCCCC2)cc1)c1ccccc1`, the MIC turned out to be 26 µM (≈ 9.87 µg/mL) in assay [1], 264 µM (≈ 100 µg/mL) in assay [2], 264 µM (≈ 100 µg/mL) in assay [3] and 26 µM (≈ 9.87 µg/mL) in assay [4].

Consider `CC1CCN(CCCCSc2ccc(/C=C/C(=O)c3ccccc3)cc2)CC1`, for which the MIC turned out to be 25 µM (≈ 9.84 µg/mL) in assay [1], 191 µM (≈ 75.2 µg/mL) in assay [2], 254 µM (≈ 100 µg/mL) in assay [3] and 254 µM (≈ 100 µg/mL) in assay [4].

As to `CC1CCN(CCCCCSc2ccc(/C=C/C(=O)c3ccccc3)cc2)CC1`, the MIC amounted to 18 µM (≈ 7.34 µg/mL) in assay [1]; 184 µM (≈ 75 µg/mL) in assay [5]; 184 µM (≈ 75 µg/mL) in assay [2]; 25 µM (≈ 10.2 µg/mL) in assay [3]; 25 µM (≈ 10.2 µg/mL) in assay [4].

In the case of `CC1CCN(CCCCCCSc2ccc(/C=C/C(=O)c3ccccc3)cc2)CC1`, the MIC in assay [1] was 24 µM (≈ 10.1 µg/mL); in assay [5], under 237 µM; in assay [2], under 237 µM; in assay [3] it was 24 µM (≈ 10.1 µg/mL); in assay [4], 18 µM (≈ 7.59 µg/mL).

In the case of `O=C(/C=C/c1ccc(SCCCCCCN2CCNCC2)cc1)c1ccccc1`, the MIC in assay [1] and in assay [3] was 245 µM (≈ 100 µg/mL) in each case.

As for `O=C(/C=C/c1ccc(SCCCCN2CCNCC2)cc1)c1ccccc1`, the MIC in assay [1], in assay [3] and in assay [4] was 263 µM (≈ 100 µg/mL) throughout.

Consider `C[C@@H]1[C@H](O)[C@@H](C)/C=C/C=C/C=C/C=C/C=C/C=C/C=C/[C@H](O[C@@H]2O[C@H](C)[C@@H](O)[C@H](N)[C@@H]2O)C[C@@H]2O[C@](O)(C[C@@H](O)C[C@@H](O)[C@H](O)CC[C@@H](O)C[C@@H](O)CC(=O)O[C@H]1C)C[C@H](O)[C@H]2C(=O)O` [AMPHOTERICIN B], for which the results for the MIC in assay [5] and in assay [2] were 0.5 µM (≈ 0.462 µg/mL) and 11 µM (≈ 10.2 µg/mL), respectively.

Regarding `O=C(N[C@H](CO)[C@H](O)c1ccc([N+](=O)[O-])cc1)C(Cl)Cl` [CHLORAMPHENICOL], the MIC in assay [1], in assay [3], in assay [4] and in assay [6] was 15 µM (≈ 4.85 µg/mL) each time.
